Test results published in patent US8383637B2, “2-amino-quinazoline derivatives useful as inhibitors of β-secretase (BACE)” (Jansssen Pharmaceutica N.V., priority 2004, dated 2013).
Several values for one entry are separate records, joined by “and”; a condition that tells them apart may be missing. Equal values may be shown once. Read-outs that look alike come from different tables or passages of the source.

Assays:
Type in all cases: biochemical
β-secretase(BACE) [1] = biological target: T1, β-secretase(BACE) (Homo sapiens, UniProt P56817); experiment: BACE Assay-2 (FS1 substrate, IC50 and Ki); settings: procedure of Example 159, FS1 substrate; for Ki: read-out: Ki μM (159)
T1 construct: purchased Panvera

β-secretase(BACE) [2] = biological target: T1, β-secretase(BACE); experiment: BACE % Inhibition Assay ((Aedens)-[…]-(Dabcyl K-amide) substrate)
Procedure: The substrate stock solution was prepared in DMSO as a 10 mg/mL solution. The substrate working solution was prepared by diluting the 10 mg/mL stock solution with substrate assay buffer to a final concentration of 300 μg/mL. The β-secretase (BACE) working solution was prepared by diluting a 0.83 mg/mL BACE stock solution with enzyme assay buffer to a final concentration of 4 μg/mL.
Test compounds were dissolved in DMSO to 10 mM.
The screening procedure for this assay was as follows: 15 μL of BACE working solution was pipetted into each well of a 96-well plate. To each well was then pipetted 2 μL of test compound at the selected concentration. Test compound and BACE were then mixed with a pipettor and incubated for 20 min at room temperature. To each well was then added 10 μL of the substrate working solution. The plates were then incubated for 1 hour at room temperature.
The procedure for the blank was as follows. 15 μL of assay buffer was pipetted into each well to be used as a blank control. To each well was then added 2 μL of vehicle and 10 μL of substrate working solution. The plates were then incubated for 1 hour at room temperature.
The procedure for the positive control was as follows: 15 μl of BACE working solution was pipetted into each well to be used as a positive control. To each well was then pipetted 2 μL of vehicle. Vehicle and BACE were then mixed with a pipettor and incubated for 20 min at room temperature. To each well was then added 10 μL of the substrate working solution. The plates were then incubated for 1 hour at room temperature.
For test compounds, % inhibition was determined at each concentration as follows: […]

β-secretase(BACE) [3] = biological target: T1, β-secretase(BACE); experiment: BACE Assay-1 (MCA-substrate, IC50); settings: procedure of Example 158; read-out: IC50 μM (158)
Outline: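 Human BACE (work solution 10 μg/mL) with MCA-peptide substrate (stock 2.0 mg/mL) in 0.05 M citrate buffer, pH 5.0, with PEG8000. Fluorescence read at T0 and T60; compounds tested at multiple concentrations and IC50 calculated from these readings.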

β-secretase(BACE) [4] = biological target: T1, β-secretase(BACE); experiment: BACE FS1% Inhibition Assay; settings: FS1 substrate
Outline: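 Human BACE (4 μg/mL working solution) preincubated 20 min at room temperature with compound, then FS1 substrate (300 μg/mL working solution) added and incubated 1 h at room temperature. Percent inhibition calculated at each compound concentration against blank and vehicle controls.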

[5] = 0.3 μM test compound, % error ±10%
[6] = 1 μM test compound, % error ±10%
[7] = 3 μM test compound, % error ±10%, read-out: % Inhibition
[8] = 10 μM test compound, % error ±10%, read-out: % Inhibition
[9] = 3 μM test compound, % error ±10%
[10] = 10 μM test compound, % error ±10%

T1 sequence (P56817 46-501): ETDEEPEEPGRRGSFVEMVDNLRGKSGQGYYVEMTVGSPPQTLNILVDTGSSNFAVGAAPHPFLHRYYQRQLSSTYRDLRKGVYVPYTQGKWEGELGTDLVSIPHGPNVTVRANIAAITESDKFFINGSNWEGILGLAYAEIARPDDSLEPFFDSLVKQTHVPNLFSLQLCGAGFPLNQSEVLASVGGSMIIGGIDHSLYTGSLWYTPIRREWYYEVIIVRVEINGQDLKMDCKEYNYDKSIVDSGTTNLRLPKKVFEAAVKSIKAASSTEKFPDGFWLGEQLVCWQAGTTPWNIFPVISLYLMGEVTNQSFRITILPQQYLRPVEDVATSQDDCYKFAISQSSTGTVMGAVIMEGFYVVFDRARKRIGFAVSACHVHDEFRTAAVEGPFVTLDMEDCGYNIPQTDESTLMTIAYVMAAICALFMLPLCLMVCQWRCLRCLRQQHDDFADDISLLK

Row | Ki (β-secretase(BACE) [1]) | inhibition at 3 µM (β-secretase(BACE) [2]; [7]) [%] | IC50 (β-secretase(BACE) [1]) [µM] | inhibition at 10 µM (β-secretase(BACE) [2]; [8]) [%] | % Inhibition (β-secretase(BACE) [2]; [9]) [%] | Structure (SMILES) | also measured
1 | 0.028 µM | 120 | – | – | – | CC(C)CC(=O)NCC(C1CCCCC1)N1Cc2cc(Oc3ccccc3)ccc2N=C1N (centres unmarked) [Compound 389] | inhibition at 0.3 µM (β-secretase(BACE) [2]; [5]): 85%; inhibition at 1 µM (β-secretase(BACE) [2]; [6]): 112%
2 | 0.84 µM | 56 | 2.8 | 90 | – | CCCN1Cc2cc(Oc3cccc(N(C(=O)OCc4ccccc4)C4CCCCC4)c3)ccc2N=C1N [Compound 49] | IC50 (β-secretase(BACE) [3]): 0.8 µM
3 | 0.082 µM and 0.067 µM | – | – | 94 | – | NC1=Nc2ccc(Oc3ccccc3)cc2CN1CCNC(=O)C1CCCCC1 [Compound 111, Cyclohexanecarboxylic acid [2-(2-amino-6-phenoxy-4H-quinazolin-3-yl)-ethyl]-amide] | IC50 (β-secretase(BACE) [3]): 0.1 µM; inhibition at 0.3 µM (β-secretase(BACE) [2]; [5]): 63%; inhibition at 1 µM (β-secretase(BACE) [2]; [6]): 96%; % Inhibition (β-secretase(BACE) [2]; 3 μM test compound, % error ±10%, 3 µM): 84% and 115%
4 | 0.23 µM | 75 | 0.44 | 87 | – | CCCN1Cc2cc(Oc3cccc(NS(=O)(=O)c4ccccc4)c3)ccc2N=C1N [Compound 61] | IC50 (β-secretase(BACE) [3]): 0.2 µM
5 | 0.53 µM | < 30 | 11 | 34 | – | CN(CCc1ccccc1)C(=O)CCCCN1Cc2cc(C(=O)c3ccccc3)ccc2N=C1N [Compound 50] | IC50 (β-secretase(BACE) [3]): 1 µM
6 | 4 µM | 42 | – | 69 | – | CN(CCCN1Cc2cc(C(=O)c3ccccc3)ccc2N=C1N)C1CCCCC1 [Compound 15, {2-Amino-3-[3-(cyclohexyl-methyl-amino)-propyl]-3,4-dihydro-quinazolin-6-yl}-phenyl-methanone] | IC50 (β-secretase(BACE) [3]): 2.3 µM
7 | – | 45 | 11 | 64 | – | CC(C)(C)OC(=O)NCCCCN1Cc2cc(Oc3ccccc3)ccc2N=C1N [Compound 101] | –
8 | – | 77 | 0.4 | 81 | – | CN(C(=O)c1cc(CN2Cc3cc(Oc4ccccc4)ccc3N=C2N)ccn1)C1CCCCC1 [Compound 89] | –
9 | – | – | – | – | <30 | NC1=Nc2ccc(Oc3ccccc3)cc2CN1Cc1cccc(CNC(=O)C(c2ccccc2)c2ccccc2)c1 [Compound 337] | % Inhibition (β-secretase(BACE) [2]; [5]): <30%; % Inhibition (β-secretase(BACE) [2]; [6]): <30%
10 | – | – | – | – | 72 | CCCCC(CC)C(=O)NCC(c1ccccc1)N1Cc2cc(Oc3ccccc3)ccc2N=C1N (centres unmarked) [Compound 341] | % Inhibition (β-secretase(BACE) [2]; [5]): <30%; % Inhibition (β-secretase(BACE) [2]; [6]): <30%
11 | – | – | – | – | – | CN(C(=O)c1cccc(CN2Cc3cc(Oc4ccccc4)ccc3N=C2N)c1)C1CCCCC1 [Compound 62, 3-(2-Amino-6-phenoxy-4H-quinazolin-3-ylmethyl)-N-cyclohexyl-N-methyl-benzamide] | inhibition at 3 µM (β-secretase(BACE) [2]): 62%; inhibition at 10 µM (β-secretase(BACE) [2]): 82%; % Inhibition (β-secretase(BACE) [2]; 3 µM): 73%; % Inhibition (β-secretase(BACE) [2]; 10 µM): 82%
12 | – | – | – | – | <30 | CN(C(=O)c1cccc(N2Cc3cc(Oc4ccccc4)ccc3N=C2N)c1)C1CCCCC1 [Compound 94] | % Inhibition (β-secretase(BACE) [2]; [10]): <30%
13 | – | – | – | – | <30 | NC1=Nc2ccc(Oc3ccccc3)cc2CN1Cc1cccc(CNC(=O)C23CC4CC(CC(C4)C2)C3)c1 [Compound 336] | % Inhibition (β-secretase(BACE) [2]; [5]): <30%; % Inhibition (β-secretase(BACE) [2]; [6]): <30%
14 | – | – | – | – | <30 | CN(C(=O)[C@H]1CCCC[C@H]1N1Cc2cc(Oc3ccccc3)ccc2N=C1N)C1CCCCC1 [Compound 81] | % Inhibition (β-secretase(BACE) [2]; [10]): <30%
15 | – | – | – | – | <30 | CCCC(CCCC(=O)N(CC)C1CCCCC1)N1Cc2cc(Oc3ccccc3)ccc2N=C1N (centres unmarked) [Compound 105] | % Inhibition (FS) 0.3 μM (β-secretase(BACE) [4]; 0.3 μM test compound): <30%; % Inhibition (FS) 1 μM (β-secretase(BACE) [4]; 1 μM test compound): <30%; % Inhibition (FS) 3 μM (β-secretase(BACE) [4]; 3 μM test compound): <30%; % Inhibition (β-secretase(BACE) [2]; [10]): <30%
16 | 0.067 µM | 119 | – | – | – | NC1=Nc2ccc(Oc3ccccc3)cc2CN1C(CNC(=O)CCC1CCCC1)C1CCCCC1 (centres unmarked) [Compound 366] | inhibition at 0.3 µM (β-secretase(BACE) [2]; [5]): 64%; inhibition at 1 µM (β-secretase(BACE) [2]; [6]): 113%
17 | – | – | – | – | 119 | CC(C)CCC(=O)NCC(C1CCCCC1)N1Cc2cc(Oc3ccccc3)ccc2N=C1N (centres unmarked) [Compound 388] | % Inhibition (β-secretase(BACE) [2]; [5]): 107%; % Inhibition (β-secretase(BACE) [2]; [6]): 119%
18 | 4 µM | 56 | 3.6 | 74 | – | CC(C)(C)OC(=O)NCCCN1Cc2cc(Oc3ccccc3)ccc2N=C1N [Compound 103] | –
